Publication PMC5654414, “In vitro and in vivo comparative and competitive activity-based protein profiling of GH29 α-L-fucosidases” (Chemical Science, 2015)

Key:
[1] = tested on: retaining α-L-fucosidases; assay: In vivo labeling of α-L-fucosidases in mice; set-up: species or system C57Bl/6J mice
Experimental: (§1) The ability of 1 to label α-L-fucosidase in living mice was investigated next. Four wild-type C57Bl/6J male mice were injected with 100 μL vehicle (PBS) or PBS containing 10, 100 or 1000 pmol 1. After two hours, the mice were anesthetized, perfused with PBS and then brain, spleen, liver and kidney tissues were isolated. Tissue homogenates were prepared and each lysate was labeled prior to gel electrophoresis with red-fluorescent cyclophellitol β-aziridine JJB75, which labels β-exoglucosidases as loading control (ESI Fig. S6 ^†). Furthermore, tissue homogenates of vehicle-treated animals were labeled with excess 1 to visualize the maximal α-L-fucosidase labeling achievable in each tissue.
(§2) The appropriate ethics committee for animal experiments approved all experimental procedures. Wild-type C57Bl/6J male mice were obtained from Harlan and fed a commercially available lab diet (RMH-B; Hope Farms). Four C57BL/6J mice were injected intraperitoneally with 100 μL sterile PBS (vehicle) or PBS containing 10, 100, or 1000 pmol of ABP 1 (about 0.2 μg kg^–1, 2 μg kg^–1, and 20 μg kg^–1, respectively). At 2 h post-administration, urine was collected and the mice were anesthetized with FFM mix (25/25/50 fentanylcitrate/midazalam/H2O), blood was collected and perfused with PBS at 3.0 mL min^–1. Then urine and organs were collected and directly frozen in liquid nitrogen. Homogenates were made in 25 mM potassium phosphate buffer, pH 6.5, supplemented with 0.1% (v/v) Triton X-100 and protease inhibitor cocktail (Roche). After determination of protein concentration (BCA kit, Pierce), 50 μg total protein was incubated with 100 nM red fluorescent JJB75 and analyzed by SDS-PAGE. As controls, matching tissue homogenates of vehicle-treated animals were concomitantly labeled with 1 μM ABP 1 and 100 nM JJB75 prior to SDS-PAGE.

[2] = target: T1, retaining α-L-fucosidases (Mus musculus, UniProt Q99LJ1); assay: In vivo labeling of α-L-fucosidases in mice; set-up: species or system C57Bl/6J mice; conditions: any of the administered doses (10, 100, 1000 pmol), 2 h
T1 construct: from tissue; host or cells: C57Bl/6J mouse spleen, liver, kidney, brain (in vivo)
T1 sequence (Q99LJ1 18-452): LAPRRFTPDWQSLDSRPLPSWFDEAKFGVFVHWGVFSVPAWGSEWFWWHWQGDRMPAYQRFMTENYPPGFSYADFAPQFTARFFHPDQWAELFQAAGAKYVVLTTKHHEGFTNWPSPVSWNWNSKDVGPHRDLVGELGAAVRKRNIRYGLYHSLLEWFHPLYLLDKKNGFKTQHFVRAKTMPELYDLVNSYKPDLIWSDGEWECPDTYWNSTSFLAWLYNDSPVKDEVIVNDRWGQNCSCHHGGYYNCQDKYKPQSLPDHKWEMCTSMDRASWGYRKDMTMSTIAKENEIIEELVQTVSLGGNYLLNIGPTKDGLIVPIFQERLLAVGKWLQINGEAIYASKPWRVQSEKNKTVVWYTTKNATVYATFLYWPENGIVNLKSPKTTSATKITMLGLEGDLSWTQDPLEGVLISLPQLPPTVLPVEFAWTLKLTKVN
Experimental: as §1, §2

FUCA2 = target: T2, FUCA2 (Homo sapiens, UniProt Q9BTY2); assay: In vitro ABP labeling of FUCA2 overexpressed in COS cells; type: binding
T2 construct: expressed in transfected cells; host or cells: COS-7
T2 sequence (Q9BTY2 29-467): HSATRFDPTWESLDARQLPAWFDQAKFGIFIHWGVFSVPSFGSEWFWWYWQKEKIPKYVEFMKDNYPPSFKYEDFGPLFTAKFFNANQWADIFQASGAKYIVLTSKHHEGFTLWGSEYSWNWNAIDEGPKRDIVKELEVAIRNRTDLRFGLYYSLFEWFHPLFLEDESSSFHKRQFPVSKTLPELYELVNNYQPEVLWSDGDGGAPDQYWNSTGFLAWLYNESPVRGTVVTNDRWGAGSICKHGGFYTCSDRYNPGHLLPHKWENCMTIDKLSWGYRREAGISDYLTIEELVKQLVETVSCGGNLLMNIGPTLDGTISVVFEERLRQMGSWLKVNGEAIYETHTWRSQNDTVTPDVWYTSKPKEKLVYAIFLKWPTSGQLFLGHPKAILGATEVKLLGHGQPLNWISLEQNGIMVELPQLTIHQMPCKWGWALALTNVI
Excerpt: Subsequently, we exposed lysates of spleens from a healthy human individual and a patient suffering from Gaucher disease to ABP 1.
The coding sequences of H. sapiens FUCA1 (NCBI reference sequence XM_005245821.1, using forward primer 5′-[…]-3′ and reverse primer 5′-[…]-3′), and of H. sapiens FUCA2 (NCBI reference sequence NM_032020.4, using forward primer 5′-[…] […]-3′ and reverse primer 5′-[…] […]-3′) were amplified via PCR and cloned into pDNOR-221 and thereafter sub-cloned in pcDNA™-DEST40 vector using the Gateway system (Invitrogen). Correctness of all constructs was verified by sequencing. Confluent COS-7 cells were transfected with pcDNA3.1 empty vector (Mock) or the vector with described insert in conjunction with FuGENE (Roche).
All pre-incubations and ABP labeling-reactions occurred for 30 min at 37 °C. Total lysates (50 μg), medium (500 μg) or purified protein preparations (5 μg) were labeled with 1 μM JJB256 1 or JJB244 2, dissolved in 150 mM McIlvaine buffer, pH 4.5, incubating for 30 min at 37 °C. […] Wet slab-gels were scanned on fluorescence using a Typhoon Variable Mode Imager (Amersham Biosciences) using λEX 488 nm and λEM 520 nm (band pass filter 40 nm) for green fluorescent JJB256 1 and λEX 532 nm and λEM 610 nM (band pass filter 30 nm) for red fluorescent JJB244 2 and JJB75.

brain penetration ([1]; concluded from absent brain labeling): does not penetrate the brain
labeling of enzyme (FUCA2): labeled
SMILES: CC1=CC(C)=[N+]2C1=C(CCCCc1cn(CCCCCCCC(=O)N3[C@@H]4[C@@H](C)[C@@H](O)[C@@H](O)[C@H](O)[C@@H]43)nn1)c1c(C)cc(C)n1[B-]2(F)F [compound 1]
in vivo labeling of α-fucosidase in spleen, liver and kidney ([1]; injection of 1000 pmol, 2 h): substantial labeling
in vivo labeling of retaining α-L-fucosidases in spleen, liver and kidney ([1]; intraperitoneal, 10, 100 or 1000 pmol, 2 h): dose-dependent labeling
in vivo brain FUCA1 labeling [2]: no in vivo brain FUCA1 labeling was observed
